Measurements from patent publication US7435431B2, “Method for controlling body weight in estrogen-insufficient women” (Abbott Laboratories, priority 2004, dated 2008).

Experiments:
Format in all cases: in vivo, rat
[1] = tested on: ovariectomized (OVX) rats; test: Experiment III: bone mineral density and bone mineral content (DEXA)
Description: (§1) After five days of acclimatization, study animals were randomly assigned to one of 15 groups (n=10/group) and placed in individual cages. Rats were either sham-operated (SHAM) or ovariectomized (OVX) and fed casein-based diets for forty days. To ensure that sufficient bone loss has occurred in the OVX animals, bone mineral density was assessed via Dual Energy X-ray Absorptiometry (DEXA) prior to treatment. Groups 1 and 2 were fed casein-based diets throughout the entire length of the study and served as the control groups. Treatments were initiated for Groups 3-15 forty days post ovariectomy surgery and followed for 60 days. Bone mineral density was assessed before and after treatments. Two days prior to the termination of the study, rats were placed in individual metabolic cages and urine was collected from 18:00 h-6:00 h. During this period, the rats had no access to food. Urine was collected in acid-washed tubes, acidified with 0.03 ml of 6 mol/L of HCl per ml of urine and the total volume was measured. At the end of the study, the rats were anesthetized with ketomine and xylazine (intraperitoneally; 100 mg and 5 mg/kg body weight, respectively) and exsanguinated. Blood was collected, serum separated and aliquoted in small samples. All urine and plasma samples were frozen at −20° C. until analyses. Femurs and 3-5 lumbar spine were dissected out for bone analyses. Initial and weekly body weights were measured. Sham animals were fed ad libitum and their precise food intakes were measured every three days. Before each feeding, the food remaining was weighed and the amount ingested was calculated. Rats in the other groups were pair-fed to the mean intake of the sham animals and had free access to deionized water.
(§2) The design was a randomized, prospective, single-blind, positive controlled, parallel study. Control groups were fed a casein-based diet. Treatment groups were fed semi-purified diets containing casein, fructooligosaccharides, whole dried plum powder or dried plum polyphenol solids, dried plum juice solids, dried plum puree solids, dried plum skin solids or raisin solids or fig solids or date solids or blueberry solids or HMB. The treatment groups are outlined in following table:
(§3) One hundred fifty, (n=10/group) ninety day old Harlan Sprague-Dawley, 210 gm, female rats were purchased from Harlan Sprague Dawley Inc. (Indianapolis, Ind.). Upon arrival at the institution, rats were individually housed in stainless steel wire mesh cages in an environmentally controlled animal laboratory at 25° C. with a 12 h light-dark cycle. The rats had free access to deionized water and semi-purified diets. They were handled according to National Institutes of Health guidelines for humane treatment of experimental animals.
The composition of the semi-purified casein-based diets are described in the following table. To ensure equivalency, the diets were assayed for carbohydrate, protein, fat, calcium and phosphorus content prior to the feeding protocol. All diets were prepared to be isonitrogenous, isocaloric and equivalent in calcium and phosphorus content. The diets consisted of approximately 22% protein, 67% carbohydrate and 11% fat. The treatment diets also contained 7.5% or 5% (w/w) dried plum powder (Sunsweet Growers, Inc., Pleasanton, Calif.), or 7.5% (w/w) dried plum solids from juice concentrate (Sunsweet Growers, Inc., Pleasanton, Calif.), or 7.5% (w/w) dried plum solids from puree (Sunsweet Growers, Inc., Pleasanton, Calif.), or 7.5% (w/w) dried plum solids from pulp/skins (Sunsweet Growers, Inc., Pleasanton, Calif.), or dried plum polyphenols equivalent to 7.5% (w/w) dried plum powder, or 7.5% (w/w) raisin solids (Mid America), or 7.5% (w/w) fig solids (Mid America), or 7.5% (w/w) date solids (Mid America), or 7.5% (w/w) blueberry solids (Mid America), or 0.25% (w/w) HMB (Metabolic Technologies, Inc., Ames, Iowa) and 5% or 2% (w/w) short chain fructooligosaccharides (NutraFlora®, FOS Golden Technologies, Inc). […]

[2] = tested on: ovariectomized (OVX) rats; test: Experiment III: micro-computed tomography
Description: as §1, §2, §3
The composition of the semi-purified casein-based diets are described in the following table. To ensure equivalency, the diets were assayed for carbohydrate, protein, fat, calcium and phosphorus content prior to the feeding protocol. All diets were prepared to be isonitrogenous, isocaloric and equivalent in calcium and phosphorus content. The diets consisted of approximately 22% protein, 67% carbohydrate and 11% fat. […]

[3] = Experiment III: body weight gain, fat gain and food intake
Description: (§4) After five days of acclimatization, study animals were randomly assigned to one of 15 groups (n=10/group) and placed in individual cages. Rats were either sham-operated (SHAM) or ovariectomized (OVX) and fed casein-based diets for forty days. To ensure that sufficient bone loss has occurred in the OVX animals, bone mineral density was assessed via Dual Energy X-ray Absorptiometry (DEXA) prior to treatment. Groups 1 and 2 were fed casein-based diets throughout the entire length of the study and served as the control groups. Treatments were initiated for Groups 3-15 forty days post ovariectomy surgery and followed for 60 days. Bone mineral density was assessed before and after treatments. […] Urine was collected in acid-washed tubes, acidified with 0.03 ml of 6 mol/L of HCl per ml of urine and the total volume was measured. […] Initial and weekly body weights were measured. Sham animals were fed ad libitum and their precise food intakes were measured every three days. Before each feeding, the food remaining was weighed and the amount ingested was calculated. […]
(§5) The composition of the semi-purified casein-based diets are described in the following table. […] Sham animals were fed ad libitum and their precise food intakes were measured every three days. Before each feeding, the food remaining was weighed and the amount ingested was calculated. […]

[4] = tested on: ovariectomized (OVX) rats; test: Experiment III: serum, urine and bone mineral and biochemical measures
Description: as §4, §5

Structure (SMILES): CC(C)(O)CC(=O)O [HMB, beta-hydroxy beta methylbutyrate]
- effects on BMD [1]: no significant effects
- reversal of osteopenia [1]: did not reverse established osteopenia
- Bone mineral content (LS Mean ± SE) Femur ([1]; OVX rats): 0.4155 ± 0.00996
- Bone mineral content (LS Mean ± SE) Spine ([1]; OVX rats): 0.1187 ± 0.00419
- Bone mineral content (LS Mean ± SE) Whole body ([1]; OVX rats): 9.7590 ± 0.1323
- Bone mineral density (Mean ± SE) Femur ([1]; OVX rats): 0.2198 ± 0.00293b
- Bone mineral density (Mean ± SE) Spine ([1]; OVX rats): 0.2341 ± 0.0035bc
- Change in Bone mineral density (from Baseline) Whole body ([1]; OVX rats, baseline to final): 0.00298 ± 0.00144ab
- Bone mineral density (Mean ± SE) Whole body ([1]; OVX rats, casein-based diets): 0.1599 ± 0.0016b
- Bone Volume/Total Volume (Ranked) Mean ± SE [2]: 0.1141 ± 0.00658b
- Connective Density (Ranked) Mean ± SE [2]: 32.865 ± 2.472b
- Structural Model Index (Ranked) Mean ± SE [2]: 1.931 ± 0.04093a
- Trabecular No. (Ranked) Mean ± SE [2]: 1.649 ± 0.078c 1/mm
- Trabecular separation (Ranked) Mean ± SE [2]: 0.6555 ± 0.03361a mm
- Body Weight Gain during Treatment period Mean ± SE ([3]; OVX rats, pair-fed to SHAM): 29.0 ± 6.9
- fat gain during the treatment period ([3]; compared to OVX-control): significantly less fat gain
- Serum IGF-1 levels compared to OVX-control [4]: significant increases
